Measurements published in patent publication US20110280940A1, “Di-Vanilloyl And Tri-Vanilloyl Derivatives For Use In Anti-Cancer Therapy” (priority 2008, published 2011).
Where two headings read alike, the source gives them in different places.

Experiments:
VM21 melanoma cells = assay: MTT colorimetric assay, overall cell growth, VM21; type: cell-based, human; details: MTT, 72 hours of incubation, read-out: In Vitro IC50 Growth Inhibitory Values, VM21
Description: (§1) The amount of formazan obtained at the end of the experiment, measured by means of a spectrophotometer, is directly proportional to the number of living cells. Optical density determination thus enabled a quantitative measurement of the effect of the investigated compounds as compared to the control condition (untreated cells) and/or to other reference compounds. Eleven human cancer cell lines and one mouse melanoma cell-line (B16F10) described in Table 2 were used in the following MTT tests. These cancer cell lines cover seven histological cancer types including prostate (PC3), glioma (Hs683, T98G, U373, melanoma (VM21, VM28), non-small-cell-lung (A549), breast (MCF-7), colon (LoVo) and oesophageal (OE21, OE33) cancers. […] Each cell line was seeded in its appropriate culture medium. The detailed experimental procedure was the following: after a 24-hour period of incubation at 37° C., the culture medium was replaced by 100 μl of fresh medium in which the tested compound was previously dissolved, at the following molar concentrations: 10^-8 […] and 10^-4 M. Each experiment was performed in sestuplicates (6 times). After 72 hours of incubation at 37° C. with (experimental conditions) or without (control condition) the compound to be tested, the medium was replaced by 100 μl MTT dissolved in RPMI (1640 without phenol red) at a concentration of 0.5 or 1 mg/ml. The micro-wells were subsequently incubated during 3 hours and a half at 37° C. and centrifuged at 1300 rpm during 10 minutes. MTT was removed and formazan crystals formed were dissolved in 100 μl DMSO. The micro-wells were shaken for 5 minutes and read on a spectrophotometer at wavelengths of 570 nm (maximal formazan absorbance). For each experimental condition, the mean optical density was calculated, allowing the determination of the percentage of remaining living cells in comparison to the control. […] The origin of all the cell lines we used, along with their biological characteristics, and the validation procedures of the MTT colorimetric assay as employed here are fully detailed in Van Quaquebeke et al., 2005, J Med Chem 48:849-856; […]

VM48 melanoma cells = assay: MTT colorimetric assay, overall cell growth, VM48; type: cell-based, human; details: MTT, 72 hours of incubation, read-out: In Vitro IC50 Growth Inhibitory Values, VM48
[1] = test system: Eleven human cancer cell lines; assay: MTT colorimetric assay, across the eleven human cancer cell lines; type: cell-based; details: mean ± SEM over the 11 human cancer cell lines, MTT, 72 hours; read-out: In Vitro IC50 Growth Inhibitory Values, m ± SEM
Description: as §1

U373 glioblastoma cells = assay: MTT colorimetric assay, overall cell growth, U373; type: cell-based, human; details: 72 hours of incubation, read-out: In Vitro IC50 Growth Inhibitory Values, U373
Description: as §1

Hs683 glioma cells = assay: MTT colorimetric assay, overall cell growth, Hs683; type: cell-based, human; details: read-out: In Vitro IC50 Growth Inhibitory Values, Hs683
Description: as §1

[2] = test system: A549 non-small-cell-lung cancer cells; assay: MTT colorimetric assay, overall cell growth, A549; type: cell-based, human; details: read-out: In Vitro IC50 Growth Inhibitory Values, A549
Description: as §1

[3] = test system: PC-3 prostate cancer cells; assay: MTT colorimetric assay, overall cell growth, PC-3; type: cell-based, human; details: 72 hours of incubation, read-out: In Vitro IC50 Growth Inhibitory Values, PC-3
Description: as §1

[4] = test system: MCF-7 breast cancer cells; assay: MTT colorimetric assay, overall cell growth, MCF-7; type: cell-based, human; details: read-out: In Vitro IC50 Growth Inhibitory Values, MCF-7
Description: as §1

LoVo colon cancer cells = assay: MTT colorimetric assay, overall cell growth, LoVo; type: cell-based, human; details: 72 hours of incubation, read-out: In Vitro IC50 Growth Inhibitory Values, LoVo
Description: as §1

T98G glioma cells = assay: MTT colorimetric assay, overall cell growth, T98G; type: cell-based, human; details: 72 hours of incubation, read-out: In Vitro IC50 Growth Inhibitory Values, T98G
Description: as §1

[5] = test system: OE21 oesophageal cancer cells; assay: MTT colorimetric assay, overall cell growth, OE21; type: cell-based, human; details: read-out: In Vitro IC50 Growth Inhibitory Values, OE21
Description: as §1

[6] = test system: OE33 oesophageal cancer cells; assay: MTT colorimetric assay, overall cell growth, OE33; type: cell-based, human; details: read-out: In Vitro IC50 Growth Inhibitory Values, OE33
Description: as §1

[7] = test system: B16F10 melanoma cell-line; assay: MTT colorimetric assay, overall cell growth, B16F10; type: cell-based, mouse; details: read-out: In Vitro IC50 Growth Inhibitory Values, B16F10
Description: as §1

| SMILES | IC50 (VM21 melanoma cells; Homo sapiens) [µM] | IC50 (VM48 melanoma cells; Homo sapiens) [µM] | IC50 [1] [µM] | IC50 (U373 glioblastoma cells) [µM] | IC50 (Hs683 glioma cells; 72 hours of incubation) [µM] | IC50 ([2]; 72 hours of incubation) [µM] | IC50 [3] [µM] | IC50 ([4]; 72 hours of incubation) [µM] | IC50 (LoVo colon cancer cells) [µM] | IC50 (T98G glioma cells) [µM] | IC50 ([5]; 72 hours of incubation) [µM] | IC50 ([6]; 72 hours of incubation) [µM] | IC50 (VM21 melanoma cells) [µM] | IC50 (VM48 melanoma cells) [µM] | IC50 ([7]; 72 hours of incubation) [µM] | also measured |
| --- | --- | --- | --- | --- | --- | --- | --- | --- | --- | --- | --- | --- | --- | --- | --- | --- |
| COc1cc(C(=O)OCc2ccccc2COC(=O)c2ccc(O)c(OC)c2)ccc1O [DLT24, [2-[(4-hydroxy-3-methoxy-benzoyl)oxymethyl]phenyl]methyl 4-hydroxy-3-methoxy-benzoate] | 48 | 58 | 53 ± 2 |  |  |  |  |  |  |  |  |  |  |  |  |  |
| COc1cc(C(=O)O[C@H]2CCC[C@H]2OC(=O)c2ccc(O)c(OC)c2)ccc1O [DLT14, cis-cyclopentane-1,2-diyl bis-(4-hydroxy-3-methoxybenzoate)] | 33 | 22 | 29 |  |  |  |  |  |  |  |  |  |  |  |  | IC50 (U373 glioblastoma cells; Homo sapiens, U373 MG): 36 µM; IC50 (Hs683 glioma cells; Homo sapiens, Hs 683, 72 hours of incubation): 27 µM; IC50 ([2]; Homo sapiens, A549, 72 hours of incubation): 24 µM; IC50 ([3]; Homo sapiens): 36 µM; IC50 ([4]; Homo sapiens, MCF7, 72 hours of incubation): 27 µM; IC50 (LoVo colon cancer cells; Homo sapiens, LoVo): 24 µM; IC50 (T98G glioma cells; Homo sapiens, T98G): 32 µM; IC50 ([5]; Homo sapiens, OE21, 72 hours of incubation): 28 µM; IC50 ([6]; Homo sapiens, OE33, 72 hours of incubation): 28 µM; IC50 ([7]; Mus musculus, B16-F10, 72 hours of incubation): 9 µM |
| COc1cc(C(=O)NCCCCCNC(=O)c2ccc(O)c(OC)c2)ccc1O [DLT37, N,N′-Pentane-1,5-diyl bis-(4-hydroxy-3-methoxybenzamide)] |  |  | > 100 | 91 | 80 | 52 | > 100 | 71 | 41 | 55 | 81 | > 100 | > 100 | > 100 | > 100 |  |
| COc1cc(C(=O)O[C@H]2CCC[C@@H]2OC(=O)c2ccc(O)c(OC)c2)ccc1O (stereo in doubt) [DLT15, S,S-trans-cyclopentane-1,2-diyl bis-(4-hydroxy-3-methoxybenzoate)] |  |  | 28 | 30 | 25 | 30 | 26 | 23 | 28 | 30 | 28 | 28 | 35 | 26 | 6 |  |
| O=C(O[C@@H]1CCCC[C@H]1OC(=O)c1ccc(O)c(Cl)c1)c1ccc(O)c(Cl)c1 (relative stereo) [DLT30, R,R-trans-cyclohexane-1,2-diyl bis-(4-hydroxy-3-chlorobenzoate)] |  |  | 32 | 31 | 10 | 18 | 44 | 21 | 26 | 11 | 41 | 34 | 53 | 58 | 1 |  |
| COc1cc(C(=O)O[C@H]2CC[C@H](OC(=O)c3ccc(O)c(OC)c3)C2)ccc1O (stereo in doubt) [DLT18, S,S-trans-cyclopentane-1,3-diyl bis-(4-hydroxy-3-methoxybenzoate)] |  |  | > 100 | > 100 | 46 | 43 | 43 | 44 | 41 | > 100 | 53 | 64 | > 100 | 59 | 30 |  |
| COc1cc(C(=O)NC2CCC(NC(=O)c3ccc(O)c(OC)c3)CC2)ccc1O (mixture of isomers) [DLT40, N,N′-cis/trans-cyclohexane-1,4-diyl bis-(4-hydroxy-3-methoxybenzamide)] |  |  | > 100 | > 100 | 95 | > 100 | 87 | 80 | 78 | > 100 | 81 | > 100 | > 100 | 98 | 36 |  |
| COc1cc(C(=O)OCc2cccc(COC(=O)c3ccc(O)c(OC)c3)c2)ccc1O [DLT25, [3-[(4-hydroxy-3-methoxy-benzoyl)oxymethyl]phenyl]methyl 4-hydroxy-3-methoxy-benzoate] | 81 | 51 | 52 ± 5 |  |  |  |  |  |  |  |  |  |  |  |  |  |
| COc1cc(C(=O)O[C@@H]2CCC[C@H]2OC(=O)c2ccc(O)c(OC)c2)ccc1O (stereo in doubt) [DLT16, R,R-trans-cyclopentane-1,2-diyl bis-(4-hydroxy-3-methoxybenzoate)] |  |  | 27 | 31 | 22 | 21 | 25 | 25 | 29 | 32 | 27 | 28 | 26 | 29 | 4 |  |
| COc1cc(C(=O)OC/C=C/COC(=O)c2ccc(O)c(OC)c2)ccc1O [DLT27, 1,4-oxybut-2-enyl-bis(4-hydroxy-3-methoxybenzoate)] | > 100 | > 100 | > 100 |  |  |  |  |  |  |  |  |  |  |  |  | IC50 ([3]; Homo sapiens): > 100 µM |
| COc1cc(C(=O)NCCCNC(=O)c2ccc(O)c(OC)c2)ccc1O [DLT36, N,N′-Propane-1,3-diyl bis-(4-hydroxy-3-methoxybenzamide)] |  |  | 35 ± 2 | 38 | 31 | 26 | 40 | 25 | 32 | 40 | 28 | 36 | 49 | 43 | 38 |  |
| COc1cc(C(=O)OCC#CCOC(=O)c2ccc(O)c(OC)c2)ccc1O [DLT28, 1,4-oxybut-2-ynyl bis(4-hydroxy-3-methoxybenzoate)] | 42 | 60 | 50 ± 4 |  |  |  |  |  |  |  |  |  |  |  |  |  |
| COc1ccc(C(=O)OCCCCCCOC(=O)c2ccc(OC)c(O)c2)cc1O [DLT29, 6-(3-hydroxy-4-methoxy-benzoyl)oxyhexyl 3-hydroxy-4-methoxy-benzoate] | 74 | 82 | > 100 |  |  |  |  |  |  |  |  |  |  |  |  |  |
| COc1ccc(C(=O)OCCCCCCOC(=O)c2ccc(OC)c(OC)c2)cc1OC [DLT26, 6-(3,4-dimethoxybenzoyl)oxyhexyl 3,4-dimethoxybenzoate] | > 100 | > 100 | > 100 |  |  |  |  |  |  |  |  |  |  |  |  |  |
